Measurements reported in patent US20170057838A1, “WATER CAPPING OF TAILINGS” (priority 2015, published 2017).

System: One-year old yellow perch
Assay: yellow perch gill structure after three weeks exposure
Assay type: in vivo
Details: added to extract solution
Text: In an attempt to establish a causative link with chemical constituents of test pond water caps, laboratory tests examined the effect of exposure to a naphthenic acid extract from fresh WIP MFT release water on perch gill structure. […] Sulphate and naphthenic acids comprise two of the main constituents of concern in capping water and may act in concert to induce gill damage. The resulting reduced gill surface area likely led to restricted transport of both naphthenic acids and oxygen into the perch body. […] The gill aneurysms presumably occur because the outer layer of the gill has been damaged.

Compound: O=S(=O)([O-])[O-].[Na+].[Na+] [sodium sulphate]
- effect of addition to the naphthenic acid extract solution on gill toxicity: exacerbated the expression of toxicity
